The values that follow come from patent publication US20070060636A1, “High enantiomeric purity dexanabinol for pharmaceutical compositions” (priority 2002, published 2007).

Structures are written as SMILES. Structures can show the parent of a compound that is named as a salt. Where two headings read alike, the source gives them in different places.

For data set [1] the following is noted: cited from earlier work.
Data set [2] relates to rats. The settings on record: conscious rats; cited from earlier work.
The nature of data set [3]: threshold for psychomimetic effects in humans. The data set is classed as in vivo. Particulars: worked out from THC threshold and 200 fold psychoactivity. An excerpt: Psychoactive cannabinoids have a variety of pharmacological effects that are evoked through interactions with the CB1 receptors predominantly expressed in the brain. The central nervous system effects that occur after in vivo exposure to HU-210 include euphoria, hypokinesia, hypothermia, anti-nociception, and catalepsy. Hypokinesia, hypothermia, anti-nociception, and catalepsy are the activities that form the basis of the “Tetrad assay” of CB1 mediated activity. […] The threshold for psychomimetic effects of oral THC in humans is in the range of 10-15 mg THC in an adult, i.e from about 0.16 to about 0.25 mg THC/kg body weight for adults of approximately 60 kg (“Cannabis and Cannabinoids, pharmacology, toxicology and therapeutic potential” edited by Grotenhermen and Russo, the Haworth Integrative Healing Press; Chapter 31 pp 345 and 351).

Another data set has as its system rat model. The settings on record: cited from earlier work.
Data set [4] relates to rats. The settings on record: 10 μg/kg i.v., cited from earlier work.
For data set [5] the following is noted: i.v.; cited from earlier work.
The conditions of data set [6]: oral, adult; cited from earlier work.
For data set [7], the system named is intra-ocular pressure (IOP). As to the kind of experiment: IOP lowering after topical administration in normotensive rabbits. The settings on record: commercially available drugs, topical. The data set is classed as in vivo, New Zealand White albino rabbits. On the procedure:
New Zealand White albino rabbits weighing 2-2.5 kg were acclimatized in our animal facility for at least a week prior to IOP measurements. Drug, saline and blank-vehicle groups (n=8-12 animals per group) were included. In most experiments, 50 μl drops were applied at 09:00 and measurements were taken 1 hour, 3, 5, and 7 hours later. Baseline IOP was individualized for each animal and time point prior to drug testing. IOP was measured by a Digilab Pneumatonometer, Model 30R. ΔIOP was calculated by subtracting the baseline IOP from IOP value measured after drug application at a corresponding time point. Maximal ΔIOP and area under the ΔIOP×hours curve (AUC) were calculated and averaged for each group. Data of IOP, AUC, blood pressure and toxicity were analyzed by the Wilcoxon-Rank test.

With `CCCCCCC(C)(C)c1cc(O)c2c(c1)OC(C)(C)[C@@H]1CC=C(CO)C[C@@H]21` [HU-210, 1,1-dimethylheptyl-(3R,4R)-7-hydroxy-Δ^6-tetrahydrocannabinol], the “psychoactivity in animals relative to Δ^9-THC” value in data set [1] (in vivo) is given as “approximately 200 fold”. Further, in data set [1] (series of animal tests), the “psychoactivity compared with HU-211” value is on record as “a thousand times more psychoactive” and the “psychoactivity compared with Δ^9-THC” value is reported as “a hundred times more psychoactive”. Also, in the data set with rats [2], the “bradycardia still present after drug administration” value was not below 8 h and the “duration of hypotensive effects” value is 2 h. The “maximal tolerated dose (theoretical)” value in data set [3] is listed as “less than 1.25 μg/kg body weight”. The PaCO2 after drug with rat model (from 32±0.7) is 45.7±1.6 mmHg. Further, in the data set with rat model (from 142±1), the “mean arterial blood pressure after drug” value is on record as 105±6 mm Hg. For the same compound, the “heart rate after drug” value in the data set with rat model (from 484±6) was 232±18 beats/min. In the data set with rat model (frontal cortex), the “change in cerebral glucose use” value is on record as −19%. The “cerebral glucose use after drug” value in the data set with rat model (frontal cortex, from 69±1) is 55±3 μmol.100 g−1.min-1. For the same compound, the “change in cerebral glucose use” value in the data set on rat model (occipital cortex) is given as −31%. For the same compound, the “cerebral glucose use after drug” value in the data set on rat model (occipital cortex, from 60±1) is reported as 41±2 μmol.100 g−1.min−1. For the same compound, in the data set on rats [4], the “reduction of mean blood pressure” value is on record as 57±5 mm Hg and the “systemic vascular resistance index” value was “without significantly affecting”. Also, the “cardiac index after drug” value with rats [4] (from 37±1) is 23±1 mL/min/100 g. Moreover, in data set [5], the “lowest administered dose at which hypotensive effect is detected” value was 1 µg/kg.
Consider `CCCCCc1cc(O)c2c(c1)OC(C)(C)[C@@H]1CCC(C)=C[C@@H]21` [THC, Δ^9-tetrahydrocannabinol], for which, in data set [6], the “threshold for psychomimetic effects” value was 10 to 15 mg.
Take `CC(C)(C)NC[C@H](O)COc1nsnc1N1CCOCC1` [Timolol, reference compound]: in data set [7], the “AUC (ΔIOP×hours)” value amounted to 7.3±3.0 mmHg×Hours.
On the same count and under the same terms, with `CC(C)(C)NC[C@H](O)COc1cccc2c1CCCC2=O` [levobunolol HCl, reference compound] the figure was 13.3±1.5 mmHg×Hours.
